Where a name gives a salt, the structure may show the parent alone. Read-outs that look alike come from different tables or passages of the source.
Legend:
[1] = test system: tobacco hornworms (Manducca sexta); design: species or system Manduca sexta; conditions: in vivo
adenylate cyclase = conditions: cockroach, a resistant species; cited from earlier work
Gs -coupled OA receptors = conditions: Manduca, a sensitive species; cited from earlier work
mosquito larvae = assay: Antilarval activity on mosquito larvae; assay type: in vivo
Method: Five to ten 2-5-day old mosquito larvae, reared from eggs, were placed in small bottles containing 3 ml of water, 2 ml of air space, and a perforated cap open to the air. The compound of interest was dissolved in water or appropriate solvent and added to make a final concentration of from 0.00001 to 1%. The bottles were capped and observed at daily intervals for the number of living larvae, pupae, and emerging adults. After two weeks, the final number of adults emerging as a percentage, relative to control, is plotted as a function of drug concentration.

[2] = test system: octopamine reuptake transporter; assay type: cell-based, Blaberus; conditions: 100 μM cocaine; ±S.E.M. of triplicate determinations; control 13.6±1.7
Manducca eggs = assay: Ovicidal assay; assay type: in vivo, Manduca sexta; conditions: 3% cocaine
Method: Test agents were tested for ovicidal activity by dipping groups of 10-50 Manducca eggs in drug solutions for 60 seconds and then determining the percentage of eggs which produced viable larvae. Alternatively, the eggs may be sprayed with the test agent and then placed on artificial media to hatch. A compound with active ovicidal activity was one which decreased the percentage of eggs hatched, relative to control.

[3] = test system: octopamine reuptake transporter; assay type: biochemical, cockroach
firefly lantern = assay: Firefly lantern assay (OA-stimulated light emission); assay type: in vivo, P. pyralis; conditions: fixed dose of cocaine injected simultaneously with OA into isolated firefly tails; zero Ca++/high Mn++
From the text: To measure the effects of drugs on firefly light emission, an isolated tail (terminal 3 abdominal segments containing the light organ) of a fresh adult P. pyralis male was mounted on a […] stainless steel needle and placed at the focal point of an optical system connected to a photometer-photomultiplier-chart recorder combination (see Nathanson, J. A., Characterization of octopamine-sensitive adenylate cyclase: Development of a potent and selective class of octopamine-2 receptor agonists with toxic effects in insects, Proc. Natl. Acad. Sci. U.S.A. 82: 599-603 (1985)). Drug (dissolved in insect saline, see Carlson, A.D., Effect of adrenergic drugs on the lantern of the larvae of the Photinus firefly, J. Exp. Biol. 48: 381-387 (1968)) was injected (3-5 μl) into the abdominal cavity dorsal to the lantern and light emission was recorded for 45 minutes or until it peaked, following which the next (larger) dose of drug was injected. In the case of animals injected with drugs other than octopamine, following the last dose, […] of octopamine (a maximally effective dose) was injected. Light production is expressed as radiance, each unit approximately equal to 1.6 nanowatts, as measured in a solid angle of 0.033 steradiants. […]

1-(2-[bis-(4-fluorophenyl)methoxy]ethyl)-4-(3-phenyl-2-propenyl)piperazine [GBR 12909]
% leaf remaining [1]: ~95%
RANK ORDER ANTIFEEDING EFFECT IN MANDUCA [1]: GBR > COC = DMI = AMT > DSP = XYL =

NCCc1c[nH]c2ccc(O)cc12 [5-HT, serotonin]
antifeeding effect compared to OA [1]: significantly weaker than OA

CN(C)CCC=C1c2ccccc2CCc2ccccc21 [AMT, amitriptyline]
% leaf remaining [1]: ~100%
RANK ORDER ANTIFEEDING EFFECT IN MANDUCA [1]: GBR > COC = DMI = AMT > DSP = XYL =

NCCc1ccc(O)c(O)c1 [DA, dopamine]
antifeeding effect [1]: no antifeeding effects
antifeeding effect of addition to cocaine [1]: no further increase in antifeeding effect

Cc1cc(Cl)ccc1N=CN [DDCDM, didemethylchlordimeform]
potency in activating adenylate cyclase relative to OA (adenylate cyclase): much weaker than OA
potency relative to OA (full OA agonist) (Gs -coupled OA receptors): 20 fold

CNCCCN1c2ccccc2CCc2ccccc21 [DMI, desmethylimipramine]
% leaf remaining [1]: ~80%
RANK ORDER ANTIFEEDING EFFECT IN MANDUCA [1]: GBR > COC = DMI = AMT > DSP = XYL =

CCN(CCCl)Cc1ccccc1Br [DSP-4]
% leaf remaining [1]: ~100%
RANK ORDER ANTIFEEDING EFFECT IN MANDUCA [1]: GBR > COC = DMI = AMT > DSP = XYL =

COC(=O)C1=CC[C@@H]2CC[C@H]1N2C [Ecgonidine methyl ester mesylate, (1 R)-8-methyl-8-azabicyclo[3,2,1]oct-2-ene-2-carboxylic acid methyl ester mesylate]
antifeeding effect [1]: no antifeeding effect

CN1[C@H]2CC[C@@H]1[C@@H](C(=O)O)[C@H](O)C2 [Ecgonine hydrochloride, (-)-beta-hydroxy-1-alpha-H, 5-alpha-H-tropane-2-beta-carboxlic acid hydrochloride]
antifeeding effect [1]: no antifeeding effect

NC[C@H](O)c1ccc(O)c(O)c1 [NE, norepinephrine]
antifeeding effect compared to OA [1]: significantly weaker than OA

COC(=O)[C@H]1[C@@H](OC(=O)c2ccccc2)C[C@@H]2CC[C@H]1N2C [cocaine]
RANK ORDER ANTIFEEDING EFFECT IN MANDUCA [1]: GBR > COC = DMI = AMT > DSP = XYL =
behavior of larvae on sprayed leaves [1]: marked behavioral abnormalities
time after which animals died [1]: 48 to 72 h
percent larvae surviving to mature adulthood (mosquito larvae; 0.01% cocaine in water): approximately 50%
adults produced (mosquito larvae; 0.1% cocaine in water): no adults were produced
total uptake of octopamine [2]: 9.6 ±1.4 pmol/mg protein
percent dead ova (Manducca eggs): greater than 95%
inhibition of sodium-dependent octopamine uptake ([3]; 10 μM cocaine): about 25%
inhibition of sodium-dependent octopamine uptake ([3]; 100 μM cocaine): about 68%
leftward shift in the OA dose-response curve (factor) (firefly lantern): about 10

CN1CCC(=C2c3ccccc3C=Cc3ccccc32)CC1 [cyproheptadine]
% leaf remaining [1]: ~55%

CNCCC(Oc1ccc(C(F)(F)F)cc1)c1ccccc1 (stereo not drawn) [fluoxetine]
% leaf remaining [1]: ~85%
RANK ORDER ANTIFEEDING EFFECT IN MANDUCA [1]: FLUOX >>MAZ

CCN(CC)CC(=O)Nc1c(C)cccc1C [lidocaine]
antifeeding inhibition [1]: 15%

OC1(c2ccc(Cl)cc2)c2ccccc2C2=NCCN21 (stereo not drawn) [mazindol]
RANK ORDER ANTIFEEDING EFFECT IN MANDUCA [1]: FLUOX >>MAZ
antifeeding effect [1]: no antifeeding activity

CCN(CC)CCOC(=O)c1ccc(N)cc1 [procaine]
antifeeding effect [1]: only lidocaine showed any activity

From US5366975A, “Invertebrate phenylethanolamine transporter and the use thereof” (priority 1992, dated 1994)
